Assay results reported in US20250313535A1, “ALPHA 4 BETA 7 INTEGRIN MODULATORS AND USES THEREOF” (DICE MOLECULES SV, INC., priority 2022, published 2025).

Legend:
[1] = molecular target: α4β7 integrin (Homo sapiens (Human), UniProt P13612+P26010); test: Integrin Adhesion Assay: Protocol 1 (MAdCAM-coated plate, RPMI-8866 cells, CellTiter GLO readout); type: cell-based
Procedure: α4β7 and α4β1 inhibition was evaluated in vitro using at least one of the following procedures:
Integrin Adhesion Assay: Protocol 1
MAdCAM (R&D Systems, 0.1 ug) was diluted in 50 μL PBS, added to each well of an opaque ELISA plate (Thermo), and incubated overnight at 4° C. Coated plates were washed once with PBS and then blocked with 200 μL of assay buffer (10 mM HEPES, 150 mM NaCl, 1 mM MnCl2, 0.1 mM CaCl2), 1% BSA) for 1 hour at 37° C. and 5% CO2. After incubation, buffer was aspirated from the plates and 50 μL of fresh assay buffer is added. Compounds were added by a compouns dispenser (Tecan) and DMSO concentration was normalized to 1% across each plate. 50 μL of RPMI-8866 cells (2×10^6 per mL) were added to each well and the plates were incubated for 1 hour at 37° C. and 5% CO2. After incubation, plates were allowed to cool to RT for 10 minutes before being washed four times in assay buffer by an automated plate washer (BioTek). After washing, 100 μL of a 1:1 mixture of assay buffer and CellTiter GLO 2.0 reagent (Promega) were added to each well. Plates were mixed for 2 minutes at 1000 rpm and then allowed to incubate an additional 10 minutes before reading out luminescence on a Tecan Spark plate reader. Raw data was converted to percent inhibition based on DMSO only and control compound wells, and curves were analyzed by 4-parameter fit within Dotmatics software.

[2] = molecular target: α4β1 integrin (Homo sapiens (Human), UniProt P05556+P13612); test: Integrin Adhesion Assay: Protocol 5 (VCAM-coated plate, RPMI-8866 cells with stable LOF mutation of the ITGB7 gene); type: cell-based; settings: RPMI-8866 cells with stable LOF mutation of the ITGB7 gene; read-out: Mean IC50 α4β1 KO^b
Chain of α4β1 integrin (P13612 34-1032): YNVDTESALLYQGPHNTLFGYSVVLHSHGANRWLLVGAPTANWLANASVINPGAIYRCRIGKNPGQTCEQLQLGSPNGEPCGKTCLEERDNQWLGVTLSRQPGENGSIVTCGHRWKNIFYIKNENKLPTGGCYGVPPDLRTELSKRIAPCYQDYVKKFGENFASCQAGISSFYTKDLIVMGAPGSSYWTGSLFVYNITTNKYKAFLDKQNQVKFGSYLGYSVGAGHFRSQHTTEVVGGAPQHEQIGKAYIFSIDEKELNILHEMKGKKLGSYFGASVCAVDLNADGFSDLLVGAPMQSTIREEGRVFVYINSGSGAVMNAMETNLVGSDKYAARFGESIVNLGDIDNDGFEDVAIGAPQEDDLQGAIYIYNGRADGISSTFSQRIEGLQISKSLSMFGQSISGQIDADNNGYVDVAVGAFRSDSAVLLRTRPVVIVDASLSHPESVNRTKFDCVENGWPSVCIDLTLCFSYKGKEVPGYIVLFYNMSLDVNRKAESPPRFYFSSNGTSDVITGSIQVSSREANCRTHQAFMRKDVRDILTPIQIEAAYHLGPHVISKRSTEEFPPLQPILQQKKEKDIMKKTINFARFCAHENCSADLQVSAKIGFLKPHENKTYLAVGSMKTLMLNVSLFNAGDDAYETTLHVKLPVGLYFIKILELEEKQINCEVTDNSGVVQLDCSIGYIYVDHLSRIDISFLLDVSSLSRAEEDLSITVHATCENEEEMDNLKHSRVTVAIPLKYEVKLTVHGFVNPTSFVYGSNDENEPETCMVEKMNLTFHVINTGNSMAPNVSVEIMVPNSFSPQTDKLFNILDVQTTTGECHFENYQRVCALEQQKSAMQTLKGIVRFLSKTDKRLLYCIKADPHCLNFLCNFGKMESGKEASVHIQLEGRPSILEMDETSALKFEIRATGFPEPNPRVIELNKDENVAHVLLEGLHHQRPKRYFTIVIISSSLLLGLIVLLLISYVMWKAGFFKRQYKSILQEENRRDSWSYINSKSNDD
Chain of α4β1 integrin (P05556 21-798): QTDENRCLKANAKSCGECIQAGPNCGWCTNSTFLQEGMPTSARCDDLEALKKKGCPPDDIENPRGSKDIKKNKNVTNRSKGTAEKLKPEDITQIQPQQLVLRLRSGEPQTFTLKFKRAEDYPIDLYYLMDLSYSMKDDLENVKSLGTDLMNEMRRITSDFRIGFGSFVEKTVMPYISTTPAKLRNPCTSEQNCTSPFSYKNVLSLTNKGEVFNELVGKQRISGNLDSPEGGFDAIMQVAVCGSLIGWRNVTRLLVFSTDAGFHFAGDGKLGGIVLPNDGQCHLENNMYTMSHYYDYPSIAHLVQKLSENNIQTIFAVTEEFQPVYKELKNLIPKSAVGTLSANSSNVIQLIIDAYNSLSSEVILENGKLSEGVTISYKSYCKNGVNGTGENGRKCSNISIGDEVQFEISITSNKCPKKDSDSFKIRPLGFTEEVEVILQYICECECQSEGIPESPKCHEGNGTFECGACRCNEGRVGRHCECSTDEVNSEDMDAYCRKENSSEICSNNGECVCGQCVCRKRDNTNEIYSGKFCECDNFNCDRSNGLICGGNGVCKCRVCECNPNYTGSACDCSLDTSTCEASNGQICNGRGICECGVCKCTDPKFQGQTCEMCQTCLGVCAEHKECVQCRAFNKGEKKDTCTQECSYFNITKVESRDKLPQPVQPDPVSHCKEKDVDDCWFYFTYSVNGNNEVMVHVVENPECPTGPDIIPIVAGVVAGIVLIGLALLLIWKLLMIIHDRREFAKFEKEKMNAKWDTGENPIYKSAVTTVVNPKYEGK
Outline: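 RPMI-8866 B cells with CRISPR/Cas9 ITGB7 knockout (clonal, verified by flow cytometry) adhered to VCAM-coated wells for 1 h at 37° C in HEPES/NaCl buffer with 1 mM MnCl2, 0.1 mM CaCl2, 1% BSA, 1% DMSO. Bound cells quantified by CellTiter-Glo luminescence after washing; % inhibition versus DMSO and control, 4-parameter fit.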

Chain of α4β7 integrin (P13612 34-1032): as the sequence (P13612 34-1032) above
Chain of α4β7 integrin (P26010 20-798): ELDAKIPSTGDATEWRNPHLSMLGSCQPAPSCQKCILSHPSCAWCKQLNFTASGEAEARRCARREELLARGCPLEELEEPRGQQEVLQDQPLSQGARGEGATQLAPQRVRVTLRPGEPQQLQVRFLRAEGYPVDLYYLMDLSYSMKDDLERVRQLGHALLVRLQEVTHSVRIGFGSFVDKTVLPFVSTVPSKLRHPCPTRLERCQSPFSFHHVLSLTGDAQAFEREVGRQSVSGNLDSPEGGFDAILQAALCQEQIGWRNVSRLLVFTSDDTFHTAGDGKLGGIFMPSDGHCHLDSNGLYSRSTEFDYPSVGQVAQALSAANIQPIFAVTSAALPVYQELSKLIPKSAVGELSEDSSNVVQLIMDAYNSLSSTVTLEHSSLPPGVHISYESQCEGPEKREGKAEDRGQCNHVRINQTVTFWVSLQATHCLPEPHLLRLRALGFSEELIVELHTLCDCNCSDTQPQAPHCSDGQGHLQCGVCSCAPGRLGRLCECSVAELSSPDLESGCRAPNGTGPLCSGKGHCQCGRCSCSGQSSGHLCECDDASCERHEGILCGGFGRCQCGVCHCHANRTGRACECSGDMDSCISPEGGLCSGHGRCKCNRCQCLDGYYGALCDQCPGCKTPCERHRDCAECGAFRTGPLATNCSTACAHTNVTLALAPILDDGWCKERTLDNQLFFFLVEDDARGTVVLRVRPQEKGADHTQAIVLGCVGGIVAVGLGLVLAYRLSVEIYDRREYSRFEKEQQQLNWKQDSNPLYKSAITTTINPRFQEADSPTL

Row | Structure (SMILES) | IC50 [1] [nM] | IC50 [2] [nM]
1 | Cn1c(=O)c(-c2cccc3c(C[C@H](NC(=O)[C@]4(C)CC[C@H](N5CCOC[C@@H]5C(F)(F)F)CC4)C(=O)O)cccc23)c(C(F)(F)F)c2ccccc21 (single isomer, unassigned) [Compound 347] | 10 to 100 | > 1000
2 | Cn1c(C(F)(F)F)cc(C(F)(F)F)c(-c2cccc3c(C[C@H](NC(=O)[C@]4(C)CC[C@@H](N5CCC(F)(F)CC5)CC4)C(=O)O)cccc23)c1=O (single isomer, unassigned) [Compound 405] | 10 to 100 | > 1000
3 | CN(C)Cc1cc(-c2cccc3c(C[C@H](NC(=O)c4c(F)cc(N5CCOC[C@@H]5C(F)(F)F)cc4CN4CCOCC4)C(=O)O)cccc23)c2cnccc2c1 [Compound 294] | < 10 | > 1000
4 | CN(C)Cc1cccc2c(-c3cccc4c(C[C@H](NC(=O)c5c(F)cc(N6CCOC[C@@H]6C(F)(F)F)cc5CN5CCOCC5)C(=O)O)cccc34)nccc12 [Compound 298] | < 10 | > 1000
5 | CN(C)c1ccc2c(-c3cccc4c(C[C@H](NC(=O)c5c(F)cc(N6CCOC[C@@H]6C(F)(F)F)cc5CN5CCOCC5)C(=O)O)cccc34)nccc2c1 [Compound 299] | < 10 | > 1000
6 | CN(C)C1CCN(Cc2cc(N3CCOC[C@@H]3C(F)(F)F)cc(F)c2C(=O)N[C@@H](Cc2cccc3c(-c4cccc5ccncc45)cccc23)C(=O)O)CC1 [Compound 300] | < 10 | > 1000
7 | O=C(N[C@@H](Cc1cccc2c(-c3cccc4ccncc34)cccc12)C(=O)O)c1c(F)cc(N2CCOC[C@@H]2C(F)(F)F)cc1CN1CCC(F)(F)CC1 [Compound 301] | 10 to 100 | > 1000
8 | CN(C)c1ccc2c(c1)c(C(F)(F)F)c(-c1cccc3c(C[C@H](NC(=O)c4c(F)cc(N5CCOC[C@@H]5C(F)(F)F)cc4F)C(=O)O)cccc13)c(=O)n2C [Compound 302] | 10 to 100 | > 1000
9 | Cc1n[nH]c(C)c1-c1cc(F)c(C(=O)N[C@@H](Cc2cccc3c(-c4c(C(F)(F)F)c5ccccc5n(C)c4=O)cccc23)C(=O)O)c(F)c1 [Compound 308] | 10 to 100 | > 1000
10 | Cc1n[nH]c(C)c1-c1ccc(F)c(C(=O)N[C@@H](Cc2cccc3c(-c4c(C(F)(F)F)c5ccccc5n(C)c4=O)cccc23)C(=O)O)c1F [Compound 309] | 10 to 100 | > 1000
11 | Cn1c(=O)c(-c2cccc3c(C[C@H](NC(=O)c4c(F)ccc(-c5cccnc5)c4F)C(=O)O)cccc23)c(C(F)(F)F)c2ccccc21 [Compound 312] | 10 to 100 | > 1000
12 | Cn1c(=O)c(-c2cccc3c(C[C@H](NC(=O)c4c(F)ccc(-c5ccccn5)c4F)C(=O)O)cccc23)c(C(F)(F)F)c2ccccc21 [Compound 313] | 10 to 100 | > 1000
13 | Cc1cncc(C)c1-c1ccc(F)c(C(=O)N[C@@H](Cc2cccc3c(-c4c(C(F)(F)F)c5ccccc5n(C)c4=O)cccc23)C(=O)O)c1F [Compound 314] | 10 to 100 | > 1000
14 | Cn1c(=O)c(-c2cccc3c(C[C@H](NC(=O)c4c(F)cc5cn(CC(F)(F)F)nc5c4F)C(=O)O)cccc23)c(C(F)(F)F)c2ccccc21 [Compound 348] | 100 to 1000 | –
15 | Cc1cccc(C)c1-c1nc(C(=O)N[C@@H](Cc2cccc3c(-c4c(C(F)(F)F)c5ccccc5n(C)c4=O)cccc23)C(=O)O)c(C)n1C [Compound 349] | > 1000 | –
16 | CN1CC(C)(Cc2cc(F)c(C(=O)N[C@@H](Cc3cccc4c(-c5c(C(F)(F)F)c6ccccc6n(C)c5=O)cccc34)C(=O)O)c(F)c2)C1 [Compound 369] | > 1000 | –
17 | Cn1c(=O)c(-c2cccc3c(C[C@H](NC(=O)c4c(F)cc(OC(F)(F)F)cc4F)C(=O)O)cccc23)c(C(F)(F)F)c2ccccc21 [Compound 370] | > 1000 | –
18 | Cn1c(=O)c(-c2cccc3c(C[C@H](NC(=O)c4c(F)cc(C5CCCCC5)cc4F)C(=O)O)cccc23)c(C(F)(F)F)c2ccccc21 [Compound 376] | > 1000 | –

Row | Structure (SMILES) | IC50 [1] [nM] | IC50 [2] [nM]
19 | Cn1c(=O)c(-c2cccc3c(C[C@H](NC(=O)c4c(F)ccc(C5CCCCC5)c4F)C(=O)O)cccc23)c(C(F)(F)F)c2ccccc21 [Compound 377] | > 1000 | –
20 | Cn1c(=O)c(-c2cccc3c(C[C@H](NC(=O)c4c(F)cc(N5CCC(F)(F)CC5)cc4F)C(=O)O)cccc23)c(C(F)(F)F)c2ccccc21 [Compound 379] | 100 to 1000 | –
21 | CN1CCC(c2cc(F)c(C(=O)N[C@@H](Cc3cccc4c(-c5c(C(F)(F)F)c6ccccc6n(C)c5=O)cccc34)C(=O)O)c(F)c2)CC1 [Compound 383] | 100 to 1000 | –
22 | Cn1c(=O)c(-c2cccc3c(C[C@H](NC(=O)C45CC(N6CCC(F)(F)CC6)(C4)C5)C(=O)O)cccc23)c(C(F)(F)F)c2ccccc21 [Compound 391] | > 1000 | –
23 | Cn1c(=O)c(-c2cccc3c(C[C@H](NC(=O)c4c(F)cc(N(CC5COC5)C5COC5)cc4F)C(=O)O)cccc23)c(C(F)(F)F)c2ccccc21 [Compound 394] | 10 to 100 | –
24 | Cn1c(=O)c(-c2cccc3c(C[C@H](NC(=O)c4c(F)cc(N5CC(F)C5)cc4F)C(=O)O)cccc23)c(C(F)(F)F)c2ccccc21 [Compound 395] | 100 to 1000 | –
25 | Cn1c(=O)c(-c2cccc3c(C[C@H](NC(=O)c4c(F)cc(N5CCS(=O)(=O)CC5)cc4F)C(=O)O)cccc23)c(C(F)(F)F)c2ccccc21 [Compound 398] | 10 to 100 | –
26 | Cn1c(C(F)(F)F)cc(C(F)(F)F)c(-c2cccc3c(C[C@H](NC(=O)[C@]4(C)CC[C@H](N5CCC(F)(F)CC5)CC4)C(=O)O)cccc23)c1=O [Compound 406] | > 1000 | –
27 | Cn1c(=O)c(-c2cccc3c(C[C@H](NC(=O)c4c(F)cc([C@H]5C[C@H](N(C)C)C5)cc4F)C(=O)O)cccc23)c(C(F)(F)F)c2ccccc21 [Compound 417] | > 1000 | –
28 | COc1ccn2nc(C(=O)N[C@@H](Cc3cccc4c(-c5c(C(F)(F)F)c6ccccc6n(C)c5=O)cccc34)C(=O)O)cc2c1 [Compound 427] | > 1000 | –
29 | Cn1c(=O)c(-c2cccc3c(C[C@H](NC(=O)c4cc5ccc(N6CC(F)(F)C6)cn5n4)C(=O)O)cccc23)c(C(F)(F)F)c2ccccc21 [Compound 428] | > 1000 | –
30 | Cn1c(=O)c(-c2cccc3c(C[C@H](NC(=O)c4cc5ccc(N6CC(F)C6)cn5n4)C(=O)O)cccc23)c(C(F)(F)F)c2ccccc21 [Compound 429] | > 1000 | –
31 | Cn1c(=O)c(-c2cccc3c(CC(Nc4nccc5cccc(F)c45)C(=O)O)cccc23)c(C(F)(F)F)c2ccccc21 (stereo not shown) [Compound 437] | > 1000 | –
32 | Cn1ccc(C(F)(F)F)c(-c2cccc3c(C[C@H](NC(=O)c4c(F)cc(N5CC(F)(F)OC(F)(F)C5)cc4F)C(=O)O)cccc23)c1=O [Compound 441] | 10 to 100 | –
33 | COCC1CCN(c2cc(F)c(C(=O)N[C@@H](Cc3cccc4c(-c5c(C(F)(F)F)c6ccccc6n(C)c5=O)cccc34)C(=O)O)c(F)c2)C1 (stereo partly shown) [Compound 463] | > 1000 | –
34 | CO[C@@H]1C[C@@H](c2cc(F)c(C(=O)N[C@@H](Cc3cccc4c(-c5c(C(F)(F)F)c6ccccc6n(C)c5=O)cccc34)C(=O)O)c(F)c2)N(C)C1 [Compound 464] | 100 to 1000 | –
35 | CO[C@@H]1C[C@H](c2cc(F)c(C(=O)N[C@@H](Cc3cccc4c(-c5c(C(F)(F)F)c6ccccc6n(C)c5=O)cccc34)C(=O)O)c(F)c2)N(C)C1 [Compound 465] | 100 to 1000 | –
36 | CN(C)Cc1ccc2c(-c3cccc4c(C[C@H](NC(=O)[C@]5(C)CC[C@H](N6CCC(F)(F)CC6)CC5)C(=O)O)cccc34)nccc2c1 [Compound 586] | > 1000 | –
